Experimental data as given in patent publication US11339203B2, “Antitumor peptide and use thereof” (TOAGOSEI CO., LTD., priority 2018, dated 2022).
Where two headings read alike, the source gives them in different places. Where no end group is shown, it is not given here.

Experiments:
Type in all cases: cell-based
[1] = system: human alveolar epithelial cell carcinoma cell line (A549); settings: 48 h
Description: (§1) CAKI2 cells were cultured and adjusted to cell count of about 5×10^3 cells per single well of 96-well plate. The amount of medium at this time was made to be 100 μL per well. Next, the 96-well plate was arranged in a CO2 incubator and incubated for about 1 day (21 hours to 24 hours) under conditions of 37° C. and 5% CO2. Subsequently, peptide-containing test media were respectively prepared for each concentration so that the concentration of each sample peptide targeted for evaluation was 12.5 μM and 25 μM followed by supplying to the wells in which the cells targeted for evaluation were cultured (namely, the wells following the above-mentioned incubation) so that the amount of media was 90 μL per well. The 96-well plate was then returned to CO2 incubator followed by incubating for 48 hours under conditions of 37° C. and 5% CO2. The number of wells (n) at each concentration in each peptide addition test group was set to 3. Thus, the values of the results indicated in the following table are the average values of the results respectively obtained for 3 test wells. Cell viability (%) was determined in the manner described below. Following completion of incubation for 48 hours as described above, the medium in each well was replaced with 100 μL of fresh medium not containing peptide followed by further adding a reagent for measuring cell proliferation in the form of “Cell Counting Kit-8” (Dojindo Laboratories) containing “water-soluble tetrazolium salt (WST-8)” as a coloring reagent at 10 μL per well. Subsequently, the 96-well plate was again returned to CO2 incubator and incubated for 1.5 hours to 2 hours under conditions of 37° C. and 5% CO2. Following completion of incubation, cell viability (%) was evaluated using a colorimetric method consisting of recovering the cell culture liquid containing the above-mentioned reagent together with measuring absorbance at wavelength of 450 nm based on reduction of tetrazolium salt (value corrected for absorbance at a wavelength of 650 nm: A450 to A650). More specifically, the cell viability (%) of each test cell line was calculated from the measured absorbance as a relative value based on cell viability of 100% for the measured value (measured absorbance) of the comparison test group that underwent incubation for 48 hours as described above in only medium not containing peptide. Antitumor activity was evaluated for Sample 2 in above-mentioned Test Example 1 targeted at multiple types of human-derived cultured tumor cells. […]

[2] = system: human non-small cell lung cancer cell line (NCI-H2444); settings: 48 h
Description: as §1

[3] = system: human kidney cancer cell line (CAKI2); settings: for Cell Viability (%): human, 48 h
Description: The antitumor activity of each sample peptide synthesized in above-mentioned Test Example 1 was evaluated targeted in human-derived cultured tumor cells. More specifically, a human kidney cancer cell line (CAKI2) that is currently commercially available was used for the test tumor cells. CAKI2 cells were cultured and adjusted to cell count of about 5×10^3 cells per single well of 96-well plate. The amount of medium at this time was made to be 100 μL per well. Next, the 96-well plate was arranged in a CO2 incubator and incubated for about 1 day (21 hours to 24 hours) under conditions of 37° C. and 5% CO2. Subsequently, peptide-containing test media were respectively prepared for each concentration so that the concentration of each sample peptide targeted for evaluation was 12.5 μM and 25 μM followed by supplying to the wells in which the cells targeted for evaluation were cultured (namely, the wells following the above-mentioned incubation) so that the amount of media was 90 μL per well. The 96-well plate was then returned to CO2 incubator followed by incubating for 48 hours under conditions of 37° C. and 5% CO2. The number of wells (n) at each concentration in each peptide addition test group was set to 3. Thus, the values of the results indicated in the following table are the average values of the results respectively obtained for 3 test wells. Cell viability (%) was determined in the manner described below. Following completion of incubation for 48 hours as described above, the medium in each well was replaced with 100 μL of fresh medium not containing peptide followed by further adding a reagent for measuring cell proliferation in the form of “Cell Counting Kit-8” (Dojindo Laboratories) containing “water-soluble tetrazolium salt (WST-8)” as a coloring reagent at 10 μL per well. Subsequently, the 96-well plate was again returned to CO2 incubator and incubated for 1.5 hours to 2 hours under conditions of 37° C. and 5% CO2. Following completion of incubation, cell viability (%) was evaluated using a colorimetric method consisting of recovering the cell culture liquid containing the above-mentioned reagent together with measuring absorbance at wavelength of 450 nm based on reduction of tetrazolium salt (value corrected for absorbance at a wavelength of 650 nm: A450 to A650). More specifically, the cell viability (%) of each test cell line was calculated from the measured absorbance as a relative value based on cell viability of 100% for the measured value (measured absorbance) of the comparison test group that underwent incubation for 48 hours as described above in only medium not containing peptide. McCoy's 5A medium (Gibco) containing 2 mM L-glutamine, 3,000 mg/L of glucose, 100 units/mL of penicillin, 100 μg/mL of streptomycin and 10% fetal bovine serum (FBS).

“FIGNLALSDLLAGVAYTANLLLKKRTLRKNDRKKR-NH2 [Sample 2]” was tested, and the “Cell Viability (%)” value ([1]; 12.5 μM) was 25.4%, the “Cell Viability (%)” value ([1]; 25 μM) was 1.4% and the “Cell Viability (%)” value ([2]; 12.5 μM) was 11%. For the same substance, the “Cell Viability (%)” value ([2]; 25 μM) was 0.6%, the “antitumor activity (tumor cell proliferation inhibitory activity)” value ([3]; CAKI2 cells, result in words, among Samples 1 to 7) was “superior antitumor activity” and the “Cell Viability (%)” value ([3]; 12.5 μM) was 9.2%. The “Cell Viability (%)” value ([3]; 25 μM) was 0.4%.
